{
  "source": "paper PMC12609579",
  "about": "“Acute Myeloid Leukemia: A Key Role of DGKα and DGKζ in Cell Viability” (Cells, 2025)",
  "key": {"[1]": {"test_system": "HL-60 cells", "set-up": "method as in PMID 37509516", "conditions": "cited from earlier work; for effect on viability: HL-60; for pIC50: HL-60, 24 h, read-out: IC50 (cytotoxicity)"}, "[2]": {"test_system": "HEL cells", "set-up": "method as in PMID 37509516", "conditions": "cited from earlier work; for pIC50: 24 h, read-out: IC50 (cytotoxicity)"}, "[3]": {"molecular_target": "serotonin 5-HT2A receptor", "conditions": "cited from earlier work"}, "[4]": {"test_system": "AML cell lines (HL-60, HEL, THP-1, K562)", "test": "alamarBlue cell viability assay, AML cell line panel (serotonin receptor inhibitors)", "type": "cell-based, human", "conditions": "24 h; for effects on AML cell viability: increasing concentrations", "protocol": "The alamarBlue assay was performed to assess cell viability in presence of chemical inhibitors. A total of 50,000 cells per well were seeded in a 96-wells plate in a volume of 100 μL of complete medium together with 10 μL of 10× concentrated inhibitor solution and then incubated for either 24 or 72 h. Each experimental condition was performed in technical quadruplicates, using cells treated with equal amounts of DMSO vehicle as control and medium alone as background. After incubation, alamarBlue was added to each well at a final concentration of 0.15 mg/mL. The fluorescence of the samples was measured 24 h later using a Spark 10 M Multimode Plate Reader (Tecan, Switzerland) with excitation and emission wavelengths of 535 nm and 590 nm, respectively. For dose–response curve fitting, fluorescence values were normalized according to the following formula:Viability (%) = [(sample mean fluorescence)/(DMSO control mean fluorescence)] ∗ 100 […]\nSupplementary figure S3: Effects of serotonin receptor inhibitors on AML cell lines viability.\nAML cells were treated with increasing concentration of the indicated inhibitor for 24 hours followed by alamarBlue viability assay for additional 24 hours. Experiments were run in quadruplicates. Data are the mean ± SEM of 4 or more experiments interpolated as [inhibitor] vs. % viability. […]"}},
  "note": "pIC50, pKi: −log10 of the molar value.",
  "data": [
    {"smiles": "Cc1ccc2c(C(=O)CN3CCN(C(=O)c4ccco4)CC3)c(C)[nH]c2c1", "note": "[AMB639752]", "values": [
      {"measurement": "effect on viability", "setting": "[1]", "value": "did not significantly affect viability"},
      {"measurement": "effect on viability", "setting": "[2]", "value": "did not significantly affect viability"}
    ]},
    {"smiles": "O=C1/C(=C/C=C/c2ccco2)SC(=S)N1NS(=O)(=O)c1ccccc1", "note": "[CU-3]", "values": [
      {"measurement": "effect on viability", "setting": "[1]", "value": "did not significantly affect viability"},
      {"measurement": "effect on viability", "setting": "[2]", "value": "did not significantly affect viability"}
    ]},
    {"smiles": "Cc1nc2sccn2c(=O)c1CCN1CCC(=C(c2ccccc2)c2ccc(F)cc2)CC1", "note": "[R59022]", "values": [
      {"measurement": "pIC50", "setting": "[1]", "value": 4.49},
      {"measurement": "pIC50", "setting": "[2]", "value": 4.31}
    ]},
    {"smiles": "O=c1c2ccccc2[nH]c(=S)n1CCN1CCC(=C(c2ccc(F)cc2)c2ccc(F)cc2)CC1", "note": "[R59949]", "values": [
      {"measurement": "pIC50", "setting": "[1]", "value": 4.14},
      {"measurement": "pIC50", "setting": "[2]", "value": 4.10}
    ]},
    {"smiles": "O=C(c1ccc(F)cc1)C1CCN(CCn2c(=S)[nH]c3ccccc3c2=O)CC1", "note": "[altanserin]", "values": [
      {"measurement": "pKi", "setting": "[3]", "value": 9.89},
      {"measurement": "effects on AML cell viability", "setting": "[4]", "value": "negligible effects"}
    ]},
    {"smiles": "CCN(CC)CCNC(=O)c1cc(Cl)c(N)cc1OC", "note": "[metoclopramide]", "values": [
      {"measurement": "highest reduction in viability", "setting": "[4]; 100 μM", "value": 11, "unit": "%"},
      {"measurement": "effects on AML cell viability", "setting": "[4]", "value": "negligible effects"}
    ]},
    {"smiles": "Cc1nc2n(c(=O)c1CCN1CCC(c3noc4cc(F)ccc34)CC1)CCCC2", "note": "[risperidone]", "values": [
      {"measurement": "effects on AML cell viability", "setting": "[4]", "value": "negligible effects"}
    ]}
  ]
}
